ChEMBL document CHEMBL4673372, “1,2,3-triazole-thiazole hybrids: Synthesis, in vitro antimicrobial activity and antibiofilm studies” (Bioorg Med Chem Lett, 2021)
Values after ≈ are worked out from the molar mass of the structure shown.

System: not listed separately
Assay: Selectivity index, ratio of CC50 for human THP-1 cells to MIC for Staphylococcus aureus MTCC 96
Format: toxicity
Details: not given; call rule not given here

| SMILES | selectivity ratio |
| --- | --- |
| COc1ccc(-n2cc(COc3ccc(/C=N/Nc4nc(-c5ccc(-c6ccccc6)cc5)cs4)cc3)nn2)cc1 | 2.58 |
| COc1ccc(-n2cc(COc3ccc(/C=N/Nc4nc(-c5ccc(Br)cc5)cs4)cc3)nn2)cc1 | 0.16 |
| COc1ccc(-n2cc(COc3ccc(/C=N/Nc4nc(-c5ccc(Cl)cc5)cs4)cc3)nn2)cc1 | 2.58 |

System: not listed separately
Assay: Cytotoxicity against human THP-1 cells
Format: cell-based
Details: not given

| SMILES | CC50 [µM] |
| --- | --- |
| COc1ccc(-n2cc(COc3ccc(/C=N/Nc4nc(-c5ccc(-c6ccccc6)cc5)cs4)cc3)nn2)cc1 | 35.8 |
| COc1ccc(-n2cc(COc3ccc(/C=N/Nc4nc(-c5ccc(Br)cc5)cs4)cc3)nn2)cc1 | 35.6 |
| COc1ccc(-n2cc(COc3ccc(/C=N/Nc4nc(-c5ccc(Cl)cc5)cs4)cc3)nn2)cc1 | 38.7 |

System: THP-1
Assay: Cytotoxicity against human THP-1 cells assessed as cell damage at 200 uM by LDH assay
Format: cell-based
Details: thp-1, 200 µM

| SMILES | Activity |
| --- | --- |
| COc1ccc(-n2cc(COc3ccc(/C=N/Nc4nc(-c5ccc(-c6ccccc6)cc5)cs4)cc3)nn2)cc1 | Toxic |
| COc1ccc(-n2cc(COc3ccc(/C=N/Nc4nc(-c5ccc(Br)cc5)cs4)cc3)nn2)cc1 | Toxic |
| COc1ccc(-n2cc(COc3ccc(/C=N/Nc4nc(-c5ccc(Cl)cc5)cs4)cc3)nn2)cc1 | Toxic |

System: THP-1
Assay: Cytotoxicity against human THP-1 cells assessed as reduction in cell viability at 200 uM by MTT assay
Format: cell-based
Details: thp-1, 200 µM

| SMILES | Activity |
| --- | --- |
| COc1ccc(-n2cc(COc3ccc(/C=N/Nc4nc(-c5ccc(-c6ccccc6)cc5)cs4)cc3)nn2)cc1 | Toxic |
| COc1ccc(-n2cc(COc3ccc(/C=N/Nc4nc(-c5ccc(Br)cc5)cs4)cc3)nn2)cc1 | Toxic |
| COc1ccc(-n2cc(COc3ccc(/C=N/Nc4nc(-c5ccc(Cl)cc5)cs4)cc3)nn2)cc1 | Toxic |

System: Candida albicans
Assay: Inhibition of biofilm formation in Candida albicans MTCC 3017 incubated for 24 hrs by crystal violet staining based microtiter plate method
Format: functional, organism-based
Details: not given

| SMILES | IC50 |
| --- | --- |
| CCOc1cccc2cc(-c3csc(N/N=C/c4ccc(OCc5cn(-c6ccc(OC)cc6)nn5)cc4)n3)c(=O)oc12 | Not Active |

System: Pseudomonas aeruginosa
Assay: Inhibition of biofilm formation in Pseudomonas aeruginosa MTCC 2453 incubated for 24 hrs by crystal violet staining based microtiter plate method
Format: functional, organism-based
Details: not given

| SMILES | IC50 |
| --- | --- |
| CCOc1cccc2cc(-c3csc(N/N=C/c4ccc(OCc5cn(-c6ccc(OC)cc6)nn5)cc4)n3)c(=O)oc12 | Not Active |

System: Escherichia coli
Assay: Inhibition of biofilm formation in Escherichia coli MTCC 739 incubated for 24 hrs by crystal violet staining based microtiter plate method
Format: functional, organism-based
Details: not given

| SMILES | IC50 |
| --- | --- |
| CCOc1cccc2cc(-c3csc(N/N=C/c4ccc(OCc5cn(-c6ccc(OC)cc6)nn5)cc4)n3)c(=O)oc12 | Not Active |

System: Raoultella planticola
Assay: Inhibition of biofilm formation in Klebsiella planticola MTCC 530 incubated for 24 hrs by crystal violet staining based microtiter plate method
Format: functional, organism-based
Details: not given

| SMILES | IC50 |
| --- | --- |
| CCOc1cccc2cc(-c3csc(N/N=C/c4ccc(OCc5cn(-c6ccc(OC)cc6)nn5)cc4)n3)c(=O)oc12 | Not Active |

System: Micrococcus luteus
Assay: Inhibition of biofilm formation in Micrococcus luteus MTCC 2470 incubated for 24 hrs by crystal violet staining based microtiter plate method
Format: functional, organism-based
Details: not given

| SMILES | IC50 |
| --- | --- |
| CCOc1cccc2cc(-c3csc(N/N=C/c4ccc(OCc5cn(-c6ccc(OC)cc6)nn5)cc4)n3)c(=O)oc12 | Not Active |

System: Bacillus subtilis
Assay: Inhibition of biofilm formation in Bacillus subtilis MTCC 121 incubated for 24 hrs by crystal violet staining based microtiter plate method
Format: functional, organism-based
Details: not given

| SMILES | IC50 |
| --- | --- |
| CCOc1cccc2cc(-c3csc(N/N=C/c4ccc(OCc5cn(-c6ccc(OC)cc6)nn5)cc4)n3)c(=O)oc12 | Not Active |

System: Staphylococcus aureus
Assay: Inhibition of biofilm formation in Staphylococcus aureus MLS16 MTCC 2940 incubated for 24 hrs by crystal violet staining based microtiter plate method
Format: functional, organism-based
Details: not given

| SMILES | IC50 |
| --- | --- |
| CCOc1cccc2cc(-c3csc(N/N=C/c4ccc(OCc5cn(-c6ccc(OC)cc6)nn5)cc4)n3)c(=O)oc12 | Not Active |

System: Staphylococcus aureus
Assay: Inhibition of biofilm formation in Staphylococcus aureus […] incubated for 24 hrs by crystal violet staining based microtiter plate method
Format: functional, organism-based
Details: not given

| SMILES | IC50 |
| --- | --- |
| CCOc1cccc2cc(-c3csc(N/N=C/c4ccc(OCc5cn(-c6ccc(OC)cc6)nn5)cc4)n3)c(=O)oc12 | Not Active |

System: Pseudomonas aeruginosa
Assay: Bactericidal activity against Pseudomonas aeruginosa MTCC 2453
Format: functional
Details: not given

| SMILES | MBC [µM] |
| --- | --- |
| COc1ccc(-n2cc(COc3ccc(/C=N/Nc4nc(-c5ccc(Br)cc5)cs4)cc3)nn2)cc1 | 111 (≈ 62.4 µg/mL) |

System: Micrococcus luteus
Assay: Bactericidal activity against Micrococcus luteus MTCC 2470
Format: functional
Details: not given

| SMILES | MBC [µM] |
| --- | --- |
| COc1ccc(-n2cc(COc3ccc(/C=N/Nc4nc(-c5ccc(Br)cc5)cs4)cc3)nn2)cc1 | 27.7 (≈ 15.6 µg/mL) |

System: Bacillus subtilis
Assay: Bactericidal activity against Bacillus subtilis MTCC 121
Format: functional
Details: not given

| SMILES | MBC [µM] |
| --- | --- |
| COc1ccc(-n2cc(COc3ccc(/C=N/Nc4nc(-c5ccc(-c6ccccc6)cc5)cs4)cc3)nn2)cc1 | 27.9 (≈ 15.6 µg/mL) |
| COc1ccc(-n2cc(COc3ccc(/C=N/Nc4nc(-c5ccc(Br)cc5)cs4)cc3)nn2)cc1 | 55.5 (≈ 31.2 µg/mL) |

System: Staphylococcus aureus
Assay: Bactericidal activity against Staphylococcus aureus MTCC 96
Format: functional
Details: not given

| SMILES | MBC [µM] |
| --- | --- |
| COc1ccc(-n2cc(COc3ccc(/C=N/Nc4nc(-c5ccc(-c6ccccc6)cc5)cs4)cc3)nn2)cc1 | 27.9 (≈ 15.6 µg/mL) |
| COc1ccc(-n2cc(COc3ccc(/C=N/Nc4nc(-c5ccc(Cl)cc5)cs4)cc3)nn2)cc1 | 30.2 (≈ 15.6 µg/mL) |

System: Pseudomonas aeruginosa
Assay: Antibacterial activity against Pseudomonas aeruginosa MTCC 2453 assessed as inhibition of bacterial growth by microtiter broth dilution method
Format: functional
Details: not given

| SMILES | MIC [µM] |
| --- | --- |
| CCOc1cccc2cc(-c3csc(N/N=C/c4ccc(OCc5cn(-c6ccc(OC)cc6)nn5)cc4)n3)c(=O)oc12 | > 210 |
| COc1ccc(-n2cc(COc3ccc(/C=N/Nc4nc(-c5ccc(-c6ccccc6)cc5)cs4)cc3)nn2)cc1 | > 224 |
| COc1ccc(-n2cc(COc3ccc(/C=N/Nc4nc(-c5ccc(Br)cc5)cs4)cc3)nn2)cc1 | 27.7 (≈ 15.6 µg/mL) |
| COc1ccc(-n2cc(COc3ccc(/C=N/Nc4nc(-c5ccc(Cl)cc5)cs4)cc3)nn2)cc1 | > 242 |

System: Escherichia coli
Assay: Antibacterial activity against Escherichia coli MTCC 739 assessed as inhibition of bacterial growth by microtiter broth dilution method
Format: functional
Details: not given

| SMILES | MIC [µM] |
| --- | --- |
| CCOc1cccc2cc(-c3csc(N/N=C/c4ccc(OCc5cn(-c6ccc(OC)cc6)nn5)cc4)n3)c(=O)oc12 | > 210 |
| COc1ccc(-n2cc(COc3ccc(/C=N/Nc4nc(-c5ccc(-c6ccccc6)cc5)cs4)cc3)nn2)cc1 | > 224 |
| COc1ccc(-n2cc(COc3ccc(/C=N/Nc4nc(-c5ccc(Br)cc5)cs4)cc3)nn2)cc1 | > 223 |
| COc1ccc(-n2cc(COc3ccc(/C=N/Nc4nc(-c5ccc(Cl)cc5)cs4)cc3)nn2)cc1 | > 242 |

System: Raoultella planticola
Assay: Antibacterial activity against Klebsiella planticola MTCC 530 assessed as inhibition of bacterial growth by microtiter broth dilution method
Format: functional
Details: not given

| SMILES | MIC [µM] |
| --- | --- |
| CCOc1cccc2cc(-c3csc(N/N=C/c4ccc(OCc5cn(-c6ccc(OC)cc6)nn5)cc4)n3)c(=O)oc12 | > 210 |
| COc1ccc(-n2cc(COc3ccc(/C=N/Nc4nc(-c5ccc(-c6ccccc6)cc5)cs4)cc3)nn2)cc1 | > 224 |
| COc1ccc(-n2cc(COc3ccc(/C=N/Nc4nc(-c5ccc(Br)cc5)cs4)cc3)nn2)cc1 | > 223 |
| COc1ccc(-n2cc(COc3ccc(/C=N/Nc4nc(-c5ccc(Cl)cc5)cs4)cc3)nn2)cc1 | > 242 |

System: Micrococcus luteus
Assay: Antibacterial activity against Micrococcus luteus MTCC 2470 assessed as inhibition of bacterial growth by microtiter broth dilution method
Format: functional
Details: not given

| SMILES | MIC [µM] |
| --- | --- |
| CCOc1cccc2cc(-c3csc(N/N=C/c4ccc(OCc5cn(-c6ccc(OC)cc6)nn5)cc4)n3)c(=O)oc12 | > 210 |
| COc1ccc(-n2cc(COc3ccc(/C=N/Nc4nc(-c5ccc(-c6ccccc6)cc5)cs4)cc3)nn2)cc1 | > 224 |
| COc1ccc(-n2cc(COc3ccc(/C=N/Nc4nc(-c5ccc(Br)cc5)cs4)cc3)nn2)cc1 | 13.8 (≈ 7.75 µg/mL) |
| COc1ccc(-n2cc(COc3ccc(/C=N/Nc4nc(-c5ccc(Cl)cc5)cs4)cc3)nn2)cc1 | > 242 |

System: Bacillus subtilis
Assay: Antibacterial activity against Bacillus subtilis MTCC 121 assessed as inhibition of bacterial growth by microtiter broth dilution method
Format: functional
Details: not given

| SMILES | MIC [µM] |
| --- | --- |
| CCOc1cccc2cc(-c3csc(N/N=C/c4ccc(OCc5cn(-c6ccc(OC)cc6)nn5)cc4)n3)c(=O)oc12 | > 210 |
| COc1ccc(-n2cc(COc3ccc(/C=N/Nc4nc(-c5ccc(-c6ccccc6)cc5)cs4)cc3)nn2)cc1 | 13.9 (≈ 7.77 µg/mL) |
| COc1ccc(-n2cc(COc3ccc(/C=N/Nc4nc(-c5ccc(Br)cc5)cs4)cc3)nn2)cc1 | 13.8 (≈ 7.75 µg/mL) |
| COc1ccc(-n2cc(COc3ccc(/C=N/Nc4nc(-c5ccc(Cl)cc5)cs4)cc3)nn2)cc1 | > 242 |

System: Staphylococcus aureus
Assay: Antibacterial activity against Staphylococcus aureus MLS16 MTCC 2940 assessed as inhibition of bacterial growth by microtiter broth dilution method
Format: functional
Details: not given

| SMILES | MIC [µM] |
| --- | --- |
| CCOc1cccc2cc(-c3csc(N/N=C/c4ccc(OCc5cn(-c6ccc(OC)cc6)nn5)cc4)n3)c(=O)oc12 | > 210 |
| COc1ccc(-n2cc(COc3ccc(/C=N/Nc4nc(-c5ccc(-c6ccccc6)cc5)cs4)cc3)nn2)cc1 | > 224 |
| COc1ccc(-n2cc(COc3ccc(/C=N/Nc4nc(-c5ccc(Br)cc5)cs4)cc3)nn2)cc1 | > 223 |
| COc1ccc(-n2cc(COc3ccc(/C=N/Nc4nc(-c5ccc(Cl)cc5)cs4)cc3)nn2)cc1 | > 242 |

System: Staphylococcus aureus
Assay: Antibacterial activity against Staphylococcus aureus MTCC 96 assessed as inhibition of bacterial growth by microtiter broth dilution method
Format: functional
Details: not given

| SMILES | MIC [µM] |
| --- | --- |
| CCOc1cccc2cc(-c3csc(N/N=C/c4ccc(OCc5cn(-c6ccc(OC)cc6)nn5)cc4)n3)c(=O)oc12 | > 210 |
| COc1ccc(-n2cc(COc3ccc(/C=N/Nc4nc(-c5ccc(-c6ccccc6)cc5)cs4)cc3)nn2)cc1 | 13.9 (≈ 7.77 µg/mL) |
| COc1ccc(-n2cc(COc3ccc(/C=N/Nc4nc(-c5ccc(Br)cc5)cs4)cc3)nn2)cc1 | > 223 |
| COc1ccc(-n2cc(COc3ccc(/C=N/Nc4nc(-c5ccc(Cl)cc5)cs4)cc3)nn2)cc1 | 15 (≈ 7.76 µg/mL) |
